Measured values taken from US11315778B2, “Spray chambers and methods of using them” (PERKINELMER HEALTH SCIENCES CANADA, INC., priority 2016, dated 2022).

How the values were obtained:
Type in all cases: cell-based
[1] = system: ovarian cancer cell line (CP70); test: Single cell ICP-MS of cisplatin-exposed CP70 cells (195Pt monitored); conditions: over the course of eight hours, FIG. 21
Description: A cell suspension can be nebulized by introducing the cell suspension through a nebulizer fluidically coupled to a spray chamber as described herein. The spray chamber can select individual cells and provide them to an inductively coupled plasma. As each cell enters the plasma, it is ionized, and the resulting ion burst from the intrinsic metal species is detected by a mass spectrometer. Each cell is treated the same as an individual particle. Cell concentrations can desirably be around 100,000 cell/mL to minimize coincidence—a situation where to cells are provided at the same time to the plasma.
To determine the effectiveness of detection of cisplatin using single cell ICP-MS using the spray chambers described herein, an ovarian cancer cell line (CP70) was exposed to cisplatin and monitored over time. Analyses were carried out on a PerkinElmer NexION 350 D ICP-MS with a 2 mm quartz injector and quartz torch operating with an RF power of 1600 W. A spray chamber as shown in FIG. 2 (though the spray chambers of FIGS. 3, 4 and 5A-5D could be used instead) can be used with a high efficiency concentric glass nebulizer (Meinhard) was used with the spray chamber and the NexION 350 D instrument.
Because background levels of Pt are non-existent and there are no common interferences on 195Pt, each spike represents Pt detected in an individual cell. […]

[2] = system: A2780/CP70 ovarian cancer cell line; test: Cisplatin uptake time course, single cell ICP-MS
Description: (§1) Cisplatin uptake in two ovarian cancer cell lines was evaluated using single particle ICP-MS (SP-ICP-MS). The ovarian cancer cell lines A2780 and A2780/CP70 were used in all experiments. Cells were grown in RPMI […] media (Gibco™) supplemented with 10% fetal bovine serum (FBS, Gibco™), insulin (Sigma-Aldrich™), 1-glutamine (Gibco™), and pen/strep (Gibco™) under 5% CO2 at 37° C. For serum starvation experiments, cells were plated and allowed to attach to the dishes. The media was removed and replaced with serum-free media for approximately 18 hours after which the media was replaced with regular media to begin cisplatin treatment. Cisplatin was re-suspended at 1 mg/mL in sterile saline and vigorously shaken for 30 minutes prior to treatment. Cells were treated with 30μM cisplatin for a time course where samples were collected at 1, 2, 4, and 8 hours post-treatment. For analysis, cells were washed twice with phosphate-buffered saline (PBS) and collected using the non-enzymatic cell dissociation solution Cellstripper (Corning™). Cells were centrifuged at 500×g for 10 minutes. The supernatant was discarded, and the cells were resuspended in 1 mL PBS, filtered through a 70μm nylon mesh, and quantitated by hemocytometer counting. Cells were diluted in PBS to a final concentration of 100,000 cells/mL and kept on ice until injection.
(§2) Analyses were performed with PerkinElmer's NexION® ICP-MS using the Syngistix™ Single Cell Application Software Module for data collection and processing. Instrumental conditions were as follows: sample uptake rate 0.04 mL/minute, 2.0 mm id quartz injector, 1600 Watts RF power, 0.36 L/minute nebulizer gas flow rate, 0.7 L/minute makeup gas flow rate, and a 60 second sample analysis time. A Meinhard HEN nebulizer and the spray chamber of FIG. 2 were also used (though the spray chambers of FIGS. 3, 4 and 5A-5D could be used instead). The Single Cell Sample Introduction Kit (Part No. N8150031) was used for sample introduction to the NexION. The kit consists of a high-efficiency nebulizer (Part No. N8142046) and the spray chamber designed for transport of cells to the plasma. Cells (1-100 microns) are larger than droplets which typically pass through conventional spray chambers (less than 2 microns).
(§3) Ionic platinum standards were prepared in PBS to matrix match the cell sample. A standard curve was generated using 1, 2, and 3 ppb platinum standard. Transport efficiency was determined using […] gold nanoparticles in PBS.
(§4) The cells chosen for this study are the ovarian cancer cell lines A2780 and A2780/CP70, which are good models for developing the single cell method since the molecular mechanism for resistance […]. A2780 is a cisplatin-sensitive cell line, while the A2780/CP70 line is cisplatin resistant. This resistance was developed by exposing the A2780 parental cell line to increasing doses of cisplatin. The A2780/CP70 cells developed resistance by reducing cisplatin uptake in addition to up-regulating DNA repair. We explored cisplatin uptake by performing a time course experiment to analyze how the distribution of cisplatin uptake changed over time within the cellular population. Both cell lines were treated for 1, 2, 4, and 8 hours with 30μM cisplatin. […] After the data is collected, the mass distribution peak can be integrated, as shown in FIG. 30C (frequency vs mass(ag)).
(§5) The time course data was summarized by fitting each histogram with a Log Normal curve. The mean intensity was determined for each time point and plotted to show the cisplatin uptake difference between A2780 and A2780/CP70 cells over time, as shown in FIG. 33.

[3] = system: A2780 ovarian cancer cell line; test: Cisplatin uptake time course, single cell ICP-MS
Description: as §1, §2, §3, §4, §5

N.N.[Cl][Pt][Cl] [cisplatin] was tested, and the “Pt content within cells (cisplatin uptake)” value [1] was “increases over time”, the uptake of platinum ([2]; A2780/CP70, 30μM cisplatin, one hour of treatment) was “very little uptake of platinum” and the “effect of serum starvation on cisplatin uptake” value ([2]; A2780/CP70, serum-starved vs control cells, FIGS. 34A and 34B) was “no effect on the uptake of cisplatin”. For the same molecule, the uptake of platinum ([3]; A2780, 30μM cisplatin, one hour of treatment) was “very little uptake of platinum”, the “effect of serum starvation on cisplatin uptake” value ([3]; A2780, serum-starved vs control cells, FIGS. 34A and 34B) was “no effect on the uptake of cisplatin” and the “cisplatin uptake over time (mean intensity of Log Normal fit)” value ([3]; A2780 vs A2780/CP70, 30μM cisplatin, 1-8 hours, FIG. 33) was “increased cisplatin uptake”. For the same molecule, the “population of cells by cisplatin content, comparison of cell lines” value ([3]; A2780 vs A2780/CP70, 30μM cisplatin, eight hours) was “increased population of cells with more cisplatin than A2780/CP70”.
